Assay [1] has as its target T1, NS3h_2a(JFH1) (Hepatitis C virus genotype 2a, UniProt Q99IB8).
T1 construct: truncated C-terminally His-tagged NS3 proteins lacking the N-terminal protease, called NS3h; His-tag (C); made in house
In words: MBHA, DNA substrate, genotype 2a helicase. Type of assay: biochemical, hepatitis C virus genotype 2a(JFH1). The method, then: All oligonucleotides were purchased from Integrated DNA Technologies (IDT, Coralville, Iowa). Primuline derivatives were synthesized and purified as described herein. Three different NS3 proteins were used in this study. Two were truncated C-terminally His-tagged NS3 proteins lacking the N-terminal protease, called NS3h, the third was a full-length NS3 with the portion of NS4A needed for protease activation fused to its N-terminus, called scNS4A-NS3 (Howe, et al. (1999) Protein Sci. 8:1332-41), and the fourth was a 23 kDa scNS4A-NS3 protease fragment lacking the helicase domains, called scNS4A-NS3p (Protein One, Rockville, Md.). NS3h was expressed from two different HCV strains. NS3h_1b(con1) was from the con1 strain of genotype 1b (GENBANK accession AB114136), and NS3h_2a(JFH1) was from the JFH1 strain of HCV genotype 2a (GENBANK accession AJ238799). […] His-tagged recombinant NS3h_1b(con1), NS3h_2a(JFH1), and scNS4A-NS3 (also from genotype 1b(con1)) were expressed, and purified as previously described (Frick, et al. (2010) supra; Lam, et al. (2003) J. Virol. 77:3950-3961). The scNS4A-NS3p (genotype 1b) was from Protein One. A plasmid expressing NS3h from dengue virus strain 2 (NS3h_DV2)(GENBANK accession 2BMF) is known in the art (Xu, et al. (2005) J. Virol. 79:10278-10288), and used to express and purify NS3h_DV2 (Belon, et al. (2010) supra)
Compounds that specifically target less conserved regions of a HCV protein are often not potent inhibitors of the same protein derived from other genotypes, and they might be susceptible to rapid evolution of related viruses. As described herein, primuline derivatives can inhibit HCV helicase isolated from the genotype 1b(con1) strain. Therefore to further analyze specificity, the subset of primuline analogs was tested on the helicase isolated from the genotype 2a(JFH1) strain. The two recombinant proteins differ at 83 of their 480 amino acids. The JHF1 strain is also of interest because it serves as the backbone for HCV strains capable of replicating in cell culture (Wakita, et al. (2005) Nat. Med. 11:791-796). The molecular beacon-based helicase assay (MBHA) (Belon & Frick (2008) supra) was used to measure the ability of each compound to inhibit DNA unwinding catalyzed by NS3h isolated from genotype 2a(JFH1) (NS3h_2a(JFH1)). […] Selected compounds were also tested for the ability to inhibit helicase reactions catalyzed by full-length NS3 and a single chain NS4A-NS3 protein (scNS4A-NS3) described below and used for protease assays.

Assay [2] has as its system HCV RLuc subgenomic replicon (genotype 1b) in Huh-7.5 cells. The assay can be described thus: HCV subgenomic replicon assay (Renilla luciferase). Type of assay: cell-based, hepatitis C virus. The following applies: Hepatitis C virus. An excerpt: An HCV Renilla luciferase reporter construct (HCV RLuc; Huang, et al. (2006) Hepatology 43:81-90) was used to measure the effect of each compound on cellular HCV RNA levels. In HCV RLuc, the HCV internal ribosome entry site (IRES) drives the translation of the neomycin and Renilla luciferase genes while the HCV nonstructural proteins (NS3 to NS5B) are translated from the Encephalomyocarditis virus IRES (Huang, et al. (2006) supra). The plasmid DNA was cleaved with ScaI, purified by phenol/chloroform extraction followed by ethanol precipitation, and used as template for RNA transcription using […] T7 RNA transcription kit (Ambion, Austin, Tex.). The RNA transcripts were treated with 2 U DNase I (Ambion) at 37° C. for 30 minutes, purified by acid phenol/chloroform extraction, followed by isopropanol precipitation, and suspended in diethylpyrocarbonate-treated water. RNA concentration was determined by spectrophotometry by measuring the A260. RNA integrity and size was checked on 1% agarose gel. Transcribed RNA was stored in aliquots at −80° C. until needed.
Huh-7.5 cells were transfected with HCV RNA by electroporation. Briefly, subconfluent Huh7.5 cells were trypsinized, suspended in complete growth medium, and centrifuged at 1,000×g for 5 minutes at 4° C. The cell pellets were then washed twice with ice-cold phosphate-buffered saline (PBS) and suspended at 1.75×10^7 cells/mL in ice-cold PBS. Replicon RNA (5 μg) was mixed with 0.4 mL of cell suspension and transferred to 2 mm gap width electroporation cuvette (EPPENDORF AG, Germany) and pulsed 5 times for 99 μsec at 820 V over 1.1 sec intervals using the ECM 830 electroporator instrument (BTX Harvard Apparatus, Holliston, Mass.). After a 5 minute recovery period at room temperature, cells were transferred to 10 ml complete growth medium, and seeded into 10 cm diameter cell culture dishes. Twenty-four hours after transfection, the medium was replaced with fresh complete DMEM supplemented with 1 mg/ml geneticin (Invitrogen) and the medium was replaced every three to four days with fresh medium containing 1 mg/mL geneticin. Geneticin-resistant colonies were selected for a period of two weeks and expanded in the presence of 250 μg/mL geneticin.
HCV RLuc replicon cells were seeded at a density of 10×10^3 cells per well in 96-well plates and incubated for 4-5 hours to allow the cells to attach to the plate. The compounds dissolved in dimethyl sulfoxide (DMSO) were added at a final concentration of 10 μM (DMSO solvent final concentration was 0.5%) and the cells were incubated for 72 hours at 37° C. under 5% CO2 atmosphere. The effects of compounds on HCV replication were then assessed by measuring the Renilla luciferase activity in compound-treated versus DMSO-treated cells. At the end of the incubation period, the medium was aspirated and the cells were washed with 1×PBS. The Renilla luciferase reporter gene assay was performed using the Renilla luciferase assay kit (PROMEGA, Madison, Wis.) according to the manufacturer's instructions. Briefly, the cells were lysed by addition of 50 μL of 1× Renilla luciferase lysis buffer followed by two cycles of freeze/thaw. The luciferase activity content of the lysate was measured with a FLUOSTAR Omega microplate reader instrument (BMG Labtech, Germany) after injecting 50 μL of luciferase substrate and reading for 5 seconds.
To determine if the above identified compounds might be useful as HCV antiviral agents, they were added to cells harboring HCV subgenomic RNA replicon. The HCV replicon chosen was derived from the same HCV strain (genotype 1b) as the NS3 protein used for screening and enzyme assays. […] 75:4614-4624; Blight, et al. (2002) J. Virol. 76:13001-13014). […]

[3] abbreviates: DNA-based MBHA, genotype 2a(JFH1), read-out: DNA Helicase NS3h_2a IC50 (μM) ± SD.
Setting [4] is: genotype 2a (JFH1), read-out: Target Potency MBHA (IC50 avg., μM) 2a (JFH1) (converted).
The mark [5] stands for this setting: Huh7.5, 10 μM compound, triplicate, average ± SD, read-out: HCV replication (% Inh.).
Where [6] appears, read: Huh7.5, 10 μM, read-out: Replicon (% Inhibition @ 10 μM).

In general, IC50 refers to the concentration that gives 50% inhibition.

Read-outs that look alike come from different tables or passages of the source. Some results are limits rather than exact numbers.

T1 sequence (Q99IB8 1196-1661): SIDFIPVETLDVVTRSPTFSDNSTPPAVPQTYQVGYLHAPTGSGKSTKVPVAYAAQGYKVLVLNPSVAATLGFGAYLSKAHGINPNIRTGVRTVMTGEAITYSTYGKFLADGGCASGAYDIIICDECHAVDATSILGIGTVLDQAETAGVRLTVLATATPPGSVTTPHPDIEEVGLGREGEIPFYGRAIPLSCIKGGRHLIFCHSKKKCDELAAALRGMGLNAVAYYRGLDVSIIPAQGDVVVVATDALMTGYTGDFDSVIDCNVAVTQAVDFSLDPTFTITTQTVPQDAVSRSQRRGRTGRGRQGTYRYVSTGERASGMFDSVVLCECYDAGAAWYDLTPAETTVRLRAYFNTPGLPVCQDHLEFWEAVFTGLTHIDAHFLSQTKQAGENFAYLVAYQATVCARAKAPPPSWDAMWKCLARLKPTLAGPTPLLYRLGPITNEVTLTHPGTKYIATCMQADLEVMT

Consider `Cc1ccc2nc(-c3ccc4nc(-c5ccc(NC(=O)c6cc(C(F)(F)F)ccc6F)cc5)sc4c3)sc2c1S(=O)(=O)O` [Compound 25, 2′-(4-(2-fluoro-5-(trifluoromethyl)benzamido)phenyl)-6-methyl-[2,6′-bibenzo[d]thiazole]-7-sulfonic acid], for which the IC50 in assay [1] (setting [3]) was 7 ± 0.9 µM; in assay [1] (setting [4]) it was 6.7 ± 1 µM. Further, the inhibition at 10 µM in assay [2] (setting [5]) and in assay [2] (setting [6]) was 39 ± 4% in each case.

Regarding `Cc1ccc2nc(-c3ccc4nc(-c5ccc(NC(=O)c6cc(F)ccc6C(F)(F)F)cc5)sc4c3)sc2c1S(=O)(=O)O` [Compound 26, 2′-(4-(5-fluoro-2-(trifluoromethyl)benzamido)phenyl)-6-methyl-[2,6′-bibenzo[d]thiazole]-7-sulfonic acid], in assay [1] (setting [4]), the IC50 was 16.6 ± 2 µM. In addition, the inhibition at 10 µM in assay [2] (setting [5]) and in assay [2] (setting [6]) was 61 ± 14% in each case.

`Cc1ccc2nc(-c3ccc4nc(-c5ccc(NC(=O)c6cc(F)cc(C(F)(F)F)c6)cc5)sc4c3)sc2c1S(=O)(=O)O` [Compound 27, 2′-(4-(3-fluoro-5-(trifluoromethyl)benzamido)phenyl)-6-methyl-[2,6′-bibenzo[d]thiazole]-7-sulfonic acid]: in assay [1] (setting [4]), the IC50 was 15.8 ± 2.2 µM. In addition, the inhibition at 10 µM in assay [2] (setting [5]) and in assay [2] (setting [6]) was 51 ± 9% throughout.

For `Cc1ccc(NC(=O)Nc2ccc(-c3nc4ccc(-c5nc6ccc(C)c(S(=O)(=O)O)c6s5)cc4s3)cc2)cc1` [Compound 28, 6-methyl-2′-(4-(3-(p-tolyl)ureido)phenyl)-[2,6′-bibenzo[d]thiazole]-7-sulfonic acid], the IC50 in assay [1] (setting [4]) is 4 µM. Also, the inhibition at 10 µM in assay [2] (setting [5]) and in assay [2] (setting [6]) was 43 ± 9% each time.

With `COc1ccc(S(=O)(=O)Nc2ccc(-c3nc4ccc(-c5nc6ccc(C)c(S(=O)(=O)O)c6s5)cc4s3)cc2)cc1` [Compound 29, 2′-(4-(4-methoxyphenylsulfonamido)phenyl)-6-methyl-[2,6′-bibenzo[d]thiazole]-7-sulfonic acid], the IC50 in assay [1] (setting [4]) is 13.4 µM. For the same molecule, the inhibition at 10 µM in assay [2] (setting [5]) and in assay [2] (setting [6]) was 44 ± 5% in each case.

Take `CC(=O)Nc1ccc(-c2nc3ccc(-c4nc5ccc(C)c(S(=O)(=O)O)c5s4)cc3s2)cc1` [Compound 30, 2′-(4-acetamidophenyl)-6-methyl-[2,6′-bibenzo[d]thiazole]-7-sulfonic acid]: the IC50 in assay [1] (setting [4]) is more than 100 µM. Besides, the inhibition at 10 µM turned out to be 1 ± 12% in assay [2] (setting [5]) and 26 ± 21% in assay [2] (setting [6]).

Regarding `Cc1ccc2nc(-c3ccc4nc(-c5ccc(NC(=O)c6cccnc6)cc5)sc4c3)sc2c1S(=O)(=O)O` [Compound 31, 6-methyl-2′-(4-(nicotinamido)phenyl)-[2,6′-bibenzo[d]thiazole]-7-sulfonic acid], in assay [1] (setting [4]), the IC50 is 48 µM. In addition, the inhibition at 10 µM in assay [2] (setting [5]) and in assay [2] (setting [6]) was 51 ± 22% each time.

With `Cc1ccc2nc(-c3ccc4nc(-c5ccc(NC(=O)c6ccncc6)cc5)sc4c3)sc2c1S(=O)(=O)O` [Compound 32, 2′-(4-(isonicotinamido)phenyl)-6-methyl-[2,6′-bibenzo[d]thiazole]-7-sulfonic acid], the half-maximal inhibitory concentration (IC50) in assay [1] (setting [4]) is 52 ± 25 µM. The inhibition at 10 µM in assay [2] (setting [5]) and in assay [2] (setting [6]) was 59 ± 13% throughout.

Turning to `Cc1ccc2nc(-c3ccc4nc(-c5ccc(NC(=O)c6ccc7ccccc7c6)cc5)sc4c3)sc2c1S(=O)(=O)O` [Compound 33, 2′-(4-(2-naphthamido)phenyl)-6-methyl-[2,6′-bibenzo[d]thiazole]-7-sulfonic acid], the IC50 was 2 ± 0.6 µM in assay [1] (setting [3]) and 4.4 µM in assay [1] (setting [4]). Moreover, the inhibition at 10 µM was 61 ± 10% in assay [2] (setting [5]) and 21 ± 33% in assay [2] (setting [6]).

On to `Cc1ccc2nc(-c3ccc4nc(-c5ccc(N(C)C(=O)c6ccc7ccccc7c6)cc5)sc4c3)sc2c1S(=O)(=O)O` [Compound 34, 6-methyl-2′-(4-(N-methyl-2-naphthamido)phenyl)-[2,6′-bibenzo[d]thiazole]-7-sulfonic acid], for which the IC50 in assay [1] (setting [4]) is 13.5 µM. Further, the inhibition at 10 µM was -30 ± 30% in assay [2] (setting [5]) and 24 ± 32% in assay [2] (setting [6]).

With `Cc1ccc2nc(-c3ccc4nc(-c5ccc(NC(=O)c6ccc7nc(-c8ccc(N)cc8)sc7c6)cc5)sc4c3)sc2c1S(=O)(=O)O` [Compound 35, 2′-(4-(2-(4-aminophenyl)benzo[d]thiazole-6-carboxamido)phenyl)-6-methyl-[2,6′-bibenzo[d]thiazole]-7-sulfonic acid], the IC50 in assay [1] (setting [3]) is 3 ± 1.2 µM; in assay [1] (setting [4]), 3.5 µM. Also, the inhibition at 10 µM in assay [2] (setting [5]) and in assay [2] (setting [6]) was 37 ± 4% each time.

`Cc1ccc2nc(-c3ccc4nc(-c5ccc(NC(=O)c6ccc7nc(-c8ccc(NC(=O)OCC9c%10ccccc%10-c%10ccccc%109)cc8)sc7c6)cc5)sc4c3)sc2c1S(=O)(=O)O.N` [Compound 36]: the IC50 in assay [1] (setting [4]) was 1.9 µM. For the same molecule, the values for the inhibition at 10 µM in assay [2] (setting [5]) and in assay [2] (setting [6]) were 42 ± 5% and 44 ± 9%, respectively.

Take `Cc1ccc2nc(-c3ccc(NC(=O)c4ccc(NC(=O)c5ccccc5)cc4)cc3)sc2c1S(=O)(=O)O.N` [Compound 40]: in assay [1] (setting [4]), the IC50 was 79.2 µM. The inhibition at 10 µM in assay [2] (setting [6]) is -19 ± 42%.

For `Cc1ccc2nc(-c3ccc4nc(-c5ccc(NC(=O)c6ccc(CNC(=O)OCC7c8ccccc8-c8ccccc87)cc6)cc5)sc4c3)sc2c1S(=O)(=O)O.N` [Compound 41], the IC50 in assay [1] (setting [4]) is 4.6 µM. Moreover, the inhibition at 10 µM in assay [2] (setting [6]) came out at 48 ± 18%.

Source of the values: patent publication US9464064B2, “HCV helicase inhibitors and methods of use thereof” (University of Kansas, priority 2011, dated 2016).
